The text below walks through data of US10016469B2, “Composition comprising antifungal agents for treating vulvovaginitis and vaginosis” (Two Lines Co., Ltd., priority 2015, dated 2018).

In one test the test system is S. denitrificans YH1. Description: Antibiotic disk diffusion assay. The test is classed as cell-based. Conditions: S. denitrificans YH1, MRS agar. On the procedure: (§1) To screen antibiotics to which Gardnerella vaginalis (G. vaginalis) is sensitive, and are resistant to probiotics, antibiotics were tested using a disk diffusion assay. Columbia agar containing a 5% human red blood cell solution was used as a media for Gardnerella vaginalis (G. vaginalis, ATCC 14018) and a MRS agar was used as a media for the strains of the present invention ([…]1 and L. crispatus YH2). As the antibiotic disk, a product manufactured by OXIOD was used.

A further test has as its system L. crispatus YH2. Nature of the test: Antibiotic disk diffusion assay. The class given is cell-based, Lactobacillus crispatus. Conditions: L. crispatus YH2, MRS agar. The protocol:
as §1

For test [1], the system named is G. vaginalis, standard microorganism (ATCC 14018). Nature of the test: Antibiotic disk diffusion assay. The test is classed as cell-based, Gardnerella vaginalis. The following applies: G. vaginalis ATCC 14018, Columbia agar with 5% human red blood cell solution. On the procedure:
To screen antibiotics to which Gardnerella vaginalis (G. vaginalis) is sensitive, and are resistant to probiotics, antibiotics were tested using a disk diffusion assay.
(§2) Columbia agar containing a 5% human red blood cell solution was used as a media for Gardnerella vaginalis (G. vaginalis, ATCC 14018) and a MRS agar was used as a media for the strains of the present invention (S. denitnficans YH1 and L. crispatus YH2). As the antibiotic disk, a product manufactured by OXIOD was used.
(§3) As described above, augmentin, metronidazole, and clindamycin were applied to a wild-type Gardnerella vaginalis (G. vaginalis) strain obtained from 33 patients suffering from bacterial vaginosis and a standard microorganism (ATCC 14018) and subjected to a test using a disk diffusion assay.

Test [2] relates to wild-type Gardnerella vaginalis (G. vaginalis) strain obtained from 33 patients suffering from bacterial vaginosis. Nature of the test: Antibiotic disk diffusion assay on clinical isolates. The following applies: for Diameter of inhibition zone per antibiotic, Average ± SD: average over the G. vaginalis strains of Table 11. The test is classed as cell-based.
Text: as §2, §3

Where [3] appears, read: G. vaginalis strain 14-1, biotype 1.
The mark [4] stands for this setting: G. vaginalis strain 14-2, biotype 5.
Where [5] appears, read: G. vaginalis strain 14-3, biotype 4.
The mark [6] stands for this setting: G. vaginalis strain 14-4, biotype 6.
Setting [7] is: G. vaginalis strain 14-5, biotype 4.
Setting [8] is: G. vaginalis strain 14-6, biotype 1.
The mark [9] stands for this setting: G. vaginalis strain 14-7, biotype 5.
The mark [10] stands for this setting: G. vaginalis strain 14-8, biotype 3.
Where [11] appears, read: G. vaginalis strain 14-9, biotype 2.
The mark [12] stands for this setting: G. vaginalis strain 14-10, biotype 3.
Setting [13] is: G. vaginalis strain 14-11, biotype 2.
Where [14] appears, read: G. vaginalis strain 14-12, biotype 5.
Setting [15] is: G. vaginalis strain 14-13, biotype 5.
Setting [16] is: G. vaginalis strain 14-14, biotype 4.
Setting [17] is: G. vaginalis strain 14-15, biotype 5.
Where [18] appears, read: G. vaginalis strain 14-16, biotype 8.
[19] abbreviates: G. vaginalis strain 14-17, biotype 5.
Setting [20] is: G. vaginalis strain 14-19, biotype 5.
Setting [21] is: G. vaginalis strain 14-20, biotype 7.
[22] abbreviates: G. vaginalis strain 14-21, biotype 8.
Setting [23] is: G. vaginalis strain 14-23, biotype 8.
Where [24] appears, read: G. vaginalis strain 14-24, biotype 8.
[25] abbreviates: G. vaginalis strain 14-25, biotype 5.
Where [26] appears, read: G. vaginalis strain 14-26, biotype 5.
[27] abbreviates: G. vaginalis strain 14-27, biotype 4.
Setting [28] is: G. vaginalis strain 14-28, biotype 5.
Where [29] appears, read: G. vaginalis strain 14-29, biotype 5.
Setting [30] is: G. vaginalis strain 14-30, biotype 5.
Where [31] appears, read: G. vaginalis strain 14-32, biotype 5.
Where [32] appears, read: G. vaginalis strain 14-33, biotype 7.
Setting [33] is: G. vaginalis strain 14-34, biotype 5.
The mark [34] stands for this setting: G. vaginalis strain 14-36, biotype 5.
Setting [35] is: G. vaginalis strain 14-37, biotype 1.

Take `CC1(C)S[C@@H]2[C@H](NC(=O)[C@H](N)c3ccccc3)C(=O)N2[C@H]1C(=O)O` [Ampicillin]: the entries for the “diameter of inhibition zone” value (in the test on S. denitrificans YH1; with L. crispatus YH2; in test [1]) were 0 mm, 0 mm and 10 mm, respectively.

Regarding `CC1(C)S[C@@H]2[C@H](NC(=O)C(C(=O)O)c3ccccc3)C(=O)N2[C@H]1C(=O)O` (stereo partly shown) [Carbenicillin], the “diameter of inhibition zone” value with S. denitrificans YH1 was 35 mm; with L. crispatus YH2 it was 35 mm; in test [1], 40 mm.

As to `CO/N=C(\C(=O)N[C@@H]1C(=O)N2C(C(=O)O)=C(COC(C)=O)CS[C@H]12)c1csc(N)n1` [Cefotaxime], the “diameter of inhibition zone” value with S. denitrificans YH1 was found to be 0 mm; in the test on L. crispatus YH2, 0 mm; in test [1], 10 mm.

As for `CCC[C@@H]1C[C@@H](C(=O)N[C@@H]([C@H]2O[C@H](SC)[C@H](O)[C@@H](O)[C@H]2O)[C@H](C)Cl)N(C)C1` [Clindamycin], the “Diameter of inhibition zone per antibiotic” value in test [2] (setting [3]) is listed as 50 mm; in test [2] (setting [4]), 60 mm; in test [2] (setting [5]), 55 mm; in test [2] (setting [6]) it was 50 mm; in test [2] (setting [7]), 45 mm; in test [2] (setting [8]) it was 45 mm. Also, the “Diameter of inhibition zone per antibiotic” value came out at 60 mm in test [2] (setting [9]); 50 mm in test [2] (setting [10]); 50 mm in test [2] (setting [11]); 55 mm in test [2] (setting [12]); 60 mm in test [2] (setting [13]); 50 mm in test [2] (setting [14]). Further, the “Diameter of inhibition zone per antibiotic” value in test [2] (setting [15]) came out at 55 mm; in test [2] (setting [16]), 50 mm; in test [2] (setting [17]), 60 mm; in test [2] (setting [18]), 60 mm; in test [2] (setting [19]) it was 55 mm; in test [2] (setting [20]), 55 mm. The “Diameter of inhibition zone per antibiotic” value in test [2] (setting [21]) was found to be 50 mm; in test [2] (setting [22]), 50 mm; in test [2] (setting [23]), 55 mm; in test [2] (setting [24]) it was 50 mm; in test [2] (setting [25]) it was 55 mm; in test [2] (setting [26]), 65 mm. Besides, the “Diameter of inhibition zone per antibiotic” value in test [2] (setting [27]) is 55 mm; in test [2] (setting [28]), 60 mm; in test [2] (setting [29]), 65 mm; in test [2] (setting [30]) it was 65 mm; in test [2] (setting [31]), 60 mm; in test [2] (setting [32]), 55 mm. Also, the “Diameter of inhibition zone per antibiotic” value in test [2] (setting [33]), in test [2] (setting [34]) and in test [2] (setting [35]) was 60 mm throughout. The “Diameter of inhibition zone per antibiotic, Average ± SD” value is 55.45 ± 5.5 mm in test [2] and 55.45±5.5 mm in test [2] (listed as clindamycin). Also, the “diameter of inhibition zone” value in test [1] stood at 55 mm.

For `C[C@@H](O)[C@H]1C(=O)N2C(C(=O)O)=C(SCCN=CN)C[C@H]12` [Imipenem], the “diameter of inhibition zone” value is 30 mm in the test on S. denitrificans YH1, 25 mm with L. crispatus YH2 and 40 mm in test [1].

As to `Cc1ncc([N+](=O)[O-])n1CCO` [Metronidazole], the “share of wild-type G. vaginalis strains on which no inhibitory effect was shown” value in test [2] (21 of 33 wild-type strains, metronidazole 50 μg/disc) is given as 64%. In test [2] (Biotype 5, 14 of 15 strains), the “share of Biotype 5 strains completely resistant” value is recorded as 93%. Further, the “Diameter of inhibition zone per antibiotic” value in test [2] (setting [3]) stood at 27 mm; in test [2] (setting [4]) it was 0 mm; in test [2] (setting [5]), 40 mm; in test [2] (setting [6]), 35 mm; in test [2] (setting [7]), 35 mm; in test [2] (setting [8]) it was 32 mm. For the same molecule, the “Diameter of inhibition zone per antibiotic” value in test [2] (setting [9]), in test [2] (setting [10]), in test [2] (setting [11]), in test [2] (setting [12]), in test [2] (setting [13]) and in test [2] (setting [14]) was 0 mm in each case. Further, the “Diameter of inhibition zone per antibiotic” value in test [2] (setting [15]) is reported as 0 mm; in test [2] (setting [16]), 35 mm; in test [2] (setting [17]) it was 0 mm; in test [2] (setting [18]) it was 25 mm; in test [2] (setting [19]), 0 mm; in test [2] (setting [20]), 0 mm. Besides, the “Diameter of inhibition zone per antibiotic” value in test [2] (setting [21]) is recorded as 0 mm; in test [2] (setting [22]), 30 mm; in test [2] (setting [23]) it was 33 mm; in test [2] (setting [24]), 20 mm; in test [2] (setting [25]), 25 mm; in test [2] (setting [26]) it was 0 mm. For the same molecule, the “Diameter of inhibition zone per antibiotic” value in test [2] (setting [27]), in test [2] (setting [28]), in test [2] (setting [29]), in test [2] (setting [30]), in test [2] (setting [31]) and in test [2] (setting [32]) was 0 mm throughout. Moreover, the “Diameter of inhibition zone per antibiotic” value was found to be 0 mm in test [2] (setting [33]), 0 mm in test [2] (setting [34]) and 20 mm in test [2] (setting [35]). The zone of inhibition at 50 µg/disc in test [2] (Gardnerella vaginalis, 12 sensitive wild-type strains, metronidazole 50 μg/disc, read-out: inhibition zones for the remaining 12 strains) was in the range of 20 to 40 mm. Also, the “diameter of inhibition zone” value in test [1] came to 0 mm.

As to `Cc1onc(-c2ccccc2)c1C(=O)N[C@@H]1C(=O)N2[C@@H]1SC(C)(C)[C@@H]2C(=O)O` [Oxacillin], the “diameter of inhibition zone” value (in the test with S. denitrificans YH1; in the test with L. crispatus YH2; in test [1]) was 0 mm in each case.

Regarding `CC1(C)S[C@@H]2[C@H](NC(=O)Cc3ccccc3)C(=O)N2[C@H]1C(=O)O` [Penicillin G], the results for the “diameter of inhibition zone” value (in the test with S. denitrificans YH1; in the test on L. crispatus YH2; in test [1]) were 0 mm, 0 mm and 10 mm, respectively.

Augmentin: the “Diameter of inhibition zone per antibiotic” value in test [2] (setting [3]) came to 60 mm; in test [2] (setting [4]), 33 mm; in test [2] (setting [5]) it was 40 mm; in test [2] (setting [6]), 45 mm; in test [2] (setting [7]), 40 mm; in test [2] (setting [8]), 60 mm. Further, the “Diameter of inhibition zone per antibiotic” value in test [2] (setting [9]) was found to be 40 mm; in test [2] (setting [10]), 50 mm; in test [2] (setting [11]) it was 35 mm; in test [2] (setting [12]), 35 mm; in test [2] (setting [13]), 60 mm; in test [2] (setting [14]), 35 mm. Besides, the “Diameter of inhibition zone per antibiotic” value in test [2] (setting [15]) is reported as 30 mm; in test [2] (setting [16]), 40 mm; in test [2] (setting [17]) it was 45 mm; in test [2] (setting [18]), 45 mm; in test [2] (setting [19]) it was 35 mm; in test [2] (setting [20]), 40 mm. The “Diameter of inhibition zone per antibiotic” value in test [2] (setting [21]) was 60 mm; in test [2] (setting [22]), 50 mm; in test [2] (setting [23]), 35 mm; in test [2] (setting [24]) it was 50 mm; in test [2] (setting [25]), 60 mm; in test [2] (setting [26]) it was 50 mm. Moreover, the “Diameter of inhibition zone per antibiotic” value is given as 50 mm in test [2] (setting [27]); 30 mm in test [2] (setting [28]); 40 mm in test [2] (setting [29]); 55 mm in test [2] (setting [30]); 50 mm in test [2] (setting [31]); 45 mm in test [2] (setting [32]). Besides, the “Diameter of inhibition zone per antibiotic” value in test [2] (setting [33]) is on record as 40 mm; in test [2] (setting [34]), 40 mm; in test [2] (setting [35]) it was 60 mm. Also, the “Diameter of inhibition zone per antibiotic, Average ± SD” value in test [2] came to 44.9±9.5 mm. Also, the “resistance of the G. vaginalis strains, in words” value in test [2] (strains of Table 11) is “no strain was resistant”. Also, the “diameter of inhibition zone” value in test [1] is listed as 60 mm.
